Data as given in ChEMBL document CHEMBL3507680, “University of Dundee, Gates Library screen for HepG2 cell viability”.

Test: Human HepG2 cell viability assay in 384 well format
Type: toxicity, cell-based
Parameters: dose 125 nL, time 70.5 hour; cytotoxicity at 70.5 h: concentration not given beside the values
Settings: HepG2 cells, read-out: Inhibition

Cc1cc2nc(C(C)C)cc(N3CCN(S(N)(=O)=O)CC3)n2n1
cytotoxicity at 70.5 h: -3.4%

CCCS(=O)(=O)N1CCC2(CC1)CC(=O)N(CCCc1ccccc1)C2
cytotoxicity at 70.5 h: 23.4%

CN1CCC(N(C)C[C@H]2CC[C@@H](Cc3cccc(CO)c3)O2)CC1
cytotoxicity at 70.5 h: 5.66%

CC(=O)N1CCc2c(nc(N(C)C)nc2N(C)CCC2CCCCO2)C1 (centres undefined)
cytotoxicity at 70.5 h: 11.3%

CCc1cc(N(C)Cc2ccncn2)n2nc(C)c(C)c2n1
cytotoxicity at 70.5 h: -5.09%

Cc1nn(C)c(C)c1NC(=O)c1cccc(CN2C[C@H]3CC[C@@H](C2)N3)c1
cytotoxicity at 70.5 h: -13.8%

CCCc1nnc(NC2CCN(C3CCSCC3)CC2)o1
cytotoxicity at 70.5 h: -13.9%

CS(=O)(=O)N1C[C@@H]2CC[C@H](C1)N(C/C=C/c1ccc(F)cc1)C2
cytotoxicity at 70.5 h: -4.45%

COC(=O)c1ccc(OC)c(OC23CCCN(CC2)C3)c1 (centres undefined)
cytotoxicity at 70.5 h: -8.44%

NC(=O)c1cncc(Oc2cccc(CN3CCCC3)c2Cl)n1
cytotoxicity at 70.5 h: -4.84%

CCN(Cc1cnn(C)c1)C[C@H]1CC[C@@H](Cc2cccc(CN)c2)O1
cytotoxicity at 70.5 h: 3.32%

Fc1cccc(Cl)c1Cn1ncnc1CSCCN1CCCC1
cytotoxicity at 70.5 h: -6.36%

O=C(NC1CCC1)c1cccc(S(=O)(=O)NCc2nc(C3CC3)no2)c1
cytotoxicity at 70.5 h: 6.45%

COc1cc(C(=O)N2CC[C@@H](NC(=O)c3ccccn3)[C@H](O)C2)ccn1
cytotoxicity at 70.5 h: -9.28%

CCN(CC)C1CCN(C(=O)c2cc(CC(C)C)nn2CC)C1 (centres undefined)
cytotoxicity at 70.5 h: 3.49%

CCN1CC2(CCN(Cc3nc(CSC)no3)CC2)CC1=O
cytotoxicity at 70.5 h: 23.5%

Cc1cc2cccc(C(=O)N3CC[C@@H](N)[C@H](O)C3)c2o1
cytotoxicity at 70.5 h: -9.95%

Cc1cc(C(F)(F)F)nc(N2CCN(Cc3nccn3C)CC2)n1
cytotoxicity at 70.5 h: 4.75%

Cn1cc(CN2CCC(CCC(=O)NC3CC3)CC2)cn1
cytotoxicity at 70.5 h: 0.934%

CCn1ccnc1CN(C)C1CCCN(Cc2ccccc2F)C1 (centres undefined)
cytotoxicity at 70.5 h: -1.31%

CC1CN(Cc2nc(Cc3ccccc3F)no2)CCN1C (centres undefined)
cytotoxicity at 70.5 h: -2.74%

C[C@@H]1CN(Cc2ccc(C(F)(F)F)cc2F)CC[C@]1(C)O
cytotoxicity at 70.5 h: 26.4%

Cc1sc2nc(CCN)nc(N(C)CCCC3CCCO3)c2c1C (centres undefined)
cytotoxicity at 70.5 h: 16.5%

CN(CC1(CO)CCC1)c1nc2c(c(=O)[nH]1)Cc1ccccc1OC2
cytotoxicity at 70.5 h: -10.8%

CC(C)N(C(=O)c1ccccc1-c1nc2c([nH]1)CCNC2)C(C)C
cytotoxicity at 70.5 h: 5.55%

Cn1ncc(NC(=O)Cn2cc(-c3ccc(F)cn3)cn2)n1
cytotoxicity at 70.5 h: -10.2%

CNc1cc(C)nc(N2Cc3cnn(Cc4ccc(F)cc4)c3C2)n1
cytotoxicity at 70.5 h: 11.4%

Cc1nnsc1CN(C)Cc1ccc(C(=O)Nc2sccc2C#N)cc1
cytotoxicity at 70.5 h: -3.25%

O=C(O)[C@]12CCCN(Cc3cccnc3)[C@@H]1CCN(c1cnccn1)C2
cytotoxicity at 70.5 h: 2.83%

O=C1C[C@H]2CC[C@@H](CN1)N2C1CCSCC1
cytotoxicity at 70.5 h: 0.716%

CSc1cccc(CC(=O)N[C@@H]2CCNC[C@H]2O)c1
cytotoxicity at 70.5 h: 10.3%

COCc1nnc(C(=O)N2CCC(N3CCCCC3)CC2)o1
cytotoxicity at 70.5 h: 16.4%

Cc1ccc(CN(CCN(C)C)C(=O)Nc2ccc(C)c(C#N)c2)s1
cytotoxicity at 70.5 h: 1.83%

COc1cccnc1-c1ccc(F)c2c1OC(CN)C2 (centres undefined)
cytotoxicity at 70.5 h: 3.56%

Cc1ccc(CN2C[C@H]3CC[C@@H]2CN(Cc2[nH]cnc2C)C3)o1
cytotoxicity at 70.5 h: -0.228%

Cc1ccc(-c2nnc(CN3CCOCC(CO)C3)o2)n1C (centres undefined)
cytotoxicity at 70.5 h: -3.57%

CN(CCO)C[C@@H]1CN(Cc2ccccc2-c2ccccc2)C[C@@H]1CO
cytotoxicity at 70.5 h: -2.36%

C1CCC(c2nc3c(c(N4CC(N5CCOCC5)C4)n2)CCNCC3)C1
cytotoxicity at 70.5 h: -8.17%

CCOCCN1CCC=C(C2c3nc[nH]c3CCN2C(C)=O)C1 (centres undefined)
cytotoxicity at 70.5 h: 0.27%

Cc1ccc(C)c(OCCNC(=O)[C@@H]2CCCCN2)c1
cytotoxicity at 70.5 h: -5.85%

O=C(CCc1cc2n(n1)CCCNC2)NCCS(=O)(=O)N1CCCC1
cytotoxicity at 70.5 h: 21.6%

Cc1cc2occ(CC(=O)N3CCC4(CCCN(C)C4=O)C3)c2cc1Cl (centres undefined)
cytotoxicity at 70.5 h: -8.33%

CCC(=O)c1ccc(OCC(=O)NC(C)c2ncnn2CC)cc1 (centres undefined)
cytotoxicity at 70.5 h: -17.2%

NC(=O)c1noc(Cn2ccc3ccccc3c2=O)n1
cytotoxicity at 70.5 h: -4.6%

NC(=O)NCCC(=O)N1CCC(c2cc(-c3ccccc3Cl)n[nH]2)CC1
cytotoxicity at 70.5 h: -1.52%

CCSc1ncc(CN2C[C@H]3CC[C@@H]2CN(C2CCOCC2)C3)cn1
cytotoxicity at 70.5 h: -7.51%

Cc1cc(C(=O)N2CCn3nc(C(=O)NC4CC4)cc3C2)nc(C)n1
cytotoxicity at 70.5 h: -2.56%

O=C(CCC1CCN(C2CCSCC2)CC1)NCC1CCCO1 (centres undefined)
cytotoxicity at 70.5 h: -12%

O=C(O)CSc1nnc(-c2ccn[nH]2)n1-c1cccc(C(F)(F)F)c1
cytotoxicity at 70.5 h: -4.2%

CCNC(=O)[C@@H]1C[C@@H](N)CN1C(=O)CCc1ccc(C)c(C)c1
cytotoxicity at 70.5 h: -10.5%

Cc1ccc(-c2nc3c([nH]2)CCNC3C(=O)O)c2cccnc12 (centres undefined)
cytotoxicity at 70.5 h: -6.16%

COc1ccc(C(=O)N2CCC(Oc3ccccc3C)(C(=O)O)CC2)o1
cytotoxicity at 70.5 h: -3.87%

Cc1nc(CN(Cc2cccnc2)Cc2ccsc2)c[nH]1
cytotoxicity at 70.5 h: 0.327%

CC(C)N1CC(C(=O)N2CCC(Oc3ccccc3Cl)CC2)CC1=O (centres undefined)
cytotoxicity at 70.5 h: -0.961%
